Reference: PubChem BioAssay AID248 (DTP/NCI, 2004)
Inconclusive results and toxic doses are left out. Cut-off read from the data, not from the text of the source: active = T/C of 150% or more; inactive = T/C below 125%.

Tested on: L1210 leukemia ip in BDF1 mice, survival T/C
Assay: NCI In Vivo Anticancer Drug Screen. Data for tumor model L1210 Leukemia (intraperitoneal) in B6D2F1 (BDF1) mice
Settings: endpoint: mean survival time, higher = longer survival
In short: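 Transplantable tumor model; survival measured in treated vs vehicle control mice. Value = treated/control.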

[1] = dose: 400.0 mg/kg/injection, schedule: Q04DX003 (ip), vehicle: saline with Tween-80
[2] = dose: 100.0 mg/kg/injection, schedule: Q01DX009 (ip), vehicle: Klucel (hydroxypropylcellulose) (HPC)
[3] = dose: 200.0 mg/kg/injection, schedule: Q01DX009 (ip), vehicle: Klucel (hydroxypropylcellulose) (HPC)
[4] = dose: 400.0 mg/kg/injection, schedule: Q01DX009 (ip), vehicle: Klucel (hydroxypropylcellulose) (HPC)
[5] = dose: 100.0 mg/kg/injection, schedule: Q01DX001 (ip), vehicle: carboxymethylcellulose (CMC)
[6] = dose: 200.0 mg/kg/injection, schedule: Q01DX001 (ip), vehicle: carboxymethylcellulose (CMC)
[7] = dose: 100.0 mg/kg/injection, schedule: Q01DX001 (ip), vehicle: saline
[8] = dose: 200.0 mg/kg/injection, schedule: Q01DX001 (ip), vehicle: saline

Measured: T/C

C[Si](C)(C)Oc1cc(N=NNC2=CC(=O)c3ccccc3C2=O)c(O)c2ccccc12
inactive: dose: 12.5 mg/kg/injection, schedule: Q04DX003 (ip), vehicle: saline with Tween-80 93 % of control | dose: 25.0 mg/kg/injection, schedule: Q04DX003 (ip), vehicle: saline with Tween-80 93 % of control | dose: 50.0 mg/kg/injection, schedule: Q04DX003 (ip), vehicle: saline with Tween-80 94 % of control | [1] 97 % of control

O=C1OC(c2cccc3c(F)cccc23)c2ccccc21 (stereo not given)
inactive: [2] 96 % of control | [3] 95 % of control | [4] 93 % of control

CCP(=S)(CP(=S)(c1ccccc1)c1ccccc1)c1ccccc1 (stereo not given)
inactive: dose: 100.0 mg/kg/injection, schedule: Q04DX002 (sc), vehicle: olive oil, sesame oil, peanut oil 104 % of control | dose: 200.0 mg/kg/injection, schedule: Q04DX002 (sc), vehicle: olive oil, sesame oil, peanut oil 104 % of control | dose: 400.0 mg/kg/injection, schedule: Q04DX002 (sc), vehicle: olive oil, sesame oil, peanut oil 104 % of control

CSc1nnc2scnn12
inactive: dose: 50.0 mg/kg/injection, schedule: Q01DX001 (ip), vehicle: carboxymethylcellulose (CMC) 104 % of control | [5] 104 % of control | [6] 101 % of control

C#CCOCC1CNC(=S)O1 (stereo not given)
inactive: dose: 100.0 mg/kg/injection, schedule: Q01DX009 (ip), vehicle: saline with Tween-80 100 % of control | dose: 100.0 mg/kg/injection, schedule: Q04DX003 (ip), vehicle: saline with Tween-80 95 % of control | dose: 200.0 mg/kg/injection, schedule: Q01DX009 (ip), vehicle: saline with Tween-80 98 % of control | dose: 200.0 mg/kg/injection, schedule: Q04DX003 (ip), vehicle: saline with Tween-80 111 % of control | dose: 400.0 mg/kg/injection, schedule: Q01DX009 (ip), vehicle: saline with Tween-80 96 % of control | [1] 97 % of control

Oc1ccccc1-c1nc2cc(Cl)ccc2o1
inactive: dose: 100.0 mg/kg/injection, schedule: Q04DX002 (ip), vehicle: Klucel (hydroxypropylcellulose) (HPC) 97 % of control | dose: 200.0 mg/kg/injection, schedule: Q04DX002 (ip), vehicle: Klucel (hydroxypropylcellulose) (HPC) 97 % of control | dose: 400.0 mg/kg/injection, schedule: Q04DX002 (ip), vehicle: Klucel (hydroxypropylcellulose) (HPC) 101 % of control

O=C(O)C1CCC(C(=O)O)NC1 (stereo not given)
inactive: dose: 100.0 mg/kg/injection, schedule: Q04DX003 (ip), vehicle: saline 106 % of control | dose: 200.0 mg/kg/injection, schedule: Q04DX003 (ip), vehicle: saline 102 % of control | dose: 400.0 mg/kg/injection, schedule: Q04DX003 (ip), vehicle: saline 101 % of control

CCC(C)n1c(C)cc(=O)n1C(C)CC (stereo not given)
inactive: dose: 15.0 mg/kg/injection, schedule: Q01DX001 (ip), vehicle: saline 101 % of control | dose: 30.0 mg/kg/injection, schedule: Q01DX001 (ip), vehicle: saline 97 % of control | dose: 60.0 mg/kg/injection, schedule: Q01DX001 (ip), vehicle: saline 101 % of control

CS(=O)(=O)Nc1ccccc1N
inactive: [2] 95 % of control | [3] 93 % of control

COc1ccc(OC(=O)Nc2cccc(Cl)c2)cc1
inactive: [2] 94 % of control | [3] 100 % of control | [4] 100 % of control

COc1cc(CCC(=O)O)cc(/C=N/NC(N)=O)c1O
inactive: [7] 101 % of control | [8] 89 % of control | dose: 400.0 mg/kg/injection, schedule: Q01DX001 (ip), vehicle: saline 95 % of control

C[N+](C)(C)CCOc1ccc([N+](=O)[O-])cc1
inactive: dose: 50.0 mg/kg/injection, schedule: Q01DX001 (ip), vehicle: saline 95 % of control | [7] 104 % of control | [8] 92 % of control

CCN(CC)C(=O)OCCN1C(=O)C2C3CCC(O3)C2C1=O (stereo not given)
inactive: dose: 100.0 mg/kg/injection, schedule: Q04DX003 (ip), vehicle: Klucel (hydroxypropylcellulose) (HPC) 93 % of control | dose: 200.0 mg/kg/injection, schedule: Q04DX003 (ip), vehicle: Klucel (hydroxypropylcellulose) (HPC) 92 % of control | dose: 400.0 mg/kg/injection, schedule: Q04DX003 (ip), vehicle: Klucel (hydroxypropylcellulose) (HPC) 93 % of control

Cc1c(C(=O)O)sc2ccc([N+](=O)[O-])cc12
inactive: [5] 97 % of control | [6] 95 % of control | dose: 400.0 mg/kg/injection, schedule: Q01DX001 (ip), vehicle: carboxymethylcellulose (CMC) 92 % of control
